Reference: PubChem BioAssay AID1320 (NMMLSC, 2008)
Activity calls are given as the source filed them. The rule behind the calls is not given here.

Molecular target: Bcl-2-related protein A1 (Homo sapiens) (UniProt Q16548)
Test: Bfl-1/Bim complex disruptors – biochemical, multiplexed, bead-based flow cytometry, dose response (AID 1320); for percent span (inhibition): test concentration not given here
Settings: Bim peptide-Bfl-1 binding, fluorescence

Sequence of Bcl-2-related protein A1 (Homo sapiens) (Q16548 whole entry, looked up): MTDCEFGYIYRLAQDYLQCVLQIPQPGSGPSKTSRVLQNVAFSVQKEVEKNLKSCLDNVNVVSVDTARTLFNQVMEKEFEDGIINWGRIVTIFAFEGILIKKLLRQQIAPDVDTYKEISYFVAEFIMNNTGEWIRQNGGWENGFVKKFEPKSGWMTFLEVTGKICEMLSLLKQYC

SMILES	EC50
Fc1ccc(/C=C2\CCCC3=C2NC(=S)NC3c2ccc(F)cc2)cc1 (configuration not stated)	inactive
O=C(N/N=C/c1ccc(O)c(O)c1O)/C(=C/c1ccc([N+](=O)[O-])cc1)NC(=O)c1ccccc1	5.22 µM

Same assay, conditions: Bim peptide-Bfl-1 binding, fluorescence, active compounds read high

SMILES	percent span (inhibition)
CCOc1cc(/C=N/NC(=O)c2cccs2)cc([N+](=O)[O-])c1O	inactive
CC(C)c1ccc(C2CC(c3ccc(Br)cc3)=NN2C(N)=S)cc1 (configuration not stated)	inactive
Cc1cc(C)c2nc3nc(C)c(C)cc3c(N)c2c1	inactive
Cc1ccc2cc(C)c(Sc3nnnn3-c3ccccc3)nc2c1	inactive
CCOC(=O)CCCNC(=O)c1cncc(O)c1	inactive
O=C(Nc1n[nH]c(C(F)(F)F)n1)C1CC1	inactive
CCOC(=O)c1sc(NC(=O)c2ccncc2)c(C#N)c1C	inactive
Nc1ccc(-c2cn3cccnc3n2)cc1	inactive
COc1cc(/C=C2\S/C(=N/S(=O)(=O)c3ccccc3)NC2=O)c([N+](=O)[O-])cc1OC	inactive
O=C(CSc1nnc(-c2ccco2)n1Cc1ccccc1)c1ccccc1	inactive
CCOc1cc(CNc2ccc(N(C)C)cc2)cc(Br)c1OCC(=O)NC(C)(C)C	inactive
COc1ccc(CCNC(=O)c2cc(-c3ccccn3)nc3c(Cl)cccc23)cc1OC	inactive
COc1ccc(C(=O)/C=C/c2cc(OC)c(O)c(OC)c2)c(F)c1	inactive
O=S1(=O)N=C(N(CCO)/N=C/c2ccccc2)c2ccccc21	inactive
C#CCOCCOCCOCCNc1nc(N2CCN(C(=O)[C@H]([C@@H](C)CC)n3cc([C@@H](N)CC(C)C)nn3)CC2)nc(N2CCN(C(=O)[C@H](Cc3cc4ccccc4[nH]3)n3cc([C@@H](N)Cc4ccc(O)cc4)nn3)CC2)n1	inactive
CCC(=O)NC(c1ccc(C)cc1)c1cc([N+](=O)[O-])c2cccnc2c1O (configuration not stated)	inactive

Next, values leading:

percent span (inhibition)	SMILES
inactive	COc1ccc(N=C2NC(=O)/C(=C\C=C\c3ccco3)S2)cc1
inactive	CCn1c(SCC(=O)Nc2ccccc2-c2ccccc2)nnc1-c1ccoc1C
inactive	COc1ccc2oc(-c3ccccc3)c(C(=O)N3CCOCC3)c2c1
inactive	COc1ccccc1Oc1ccc2c(c1)C(=O)N(c1ccccc1)C2=O
inactive	COc1ccc(N2CC(C(=O)Nc3nnc(SCC(=O)c4ccccc4)s3)CC2=O)cc1 (configuration not stated)
inactive	CCN1CCN(c2ccc(NC(=O)c3cccc4ncccc34)cc2)CC1
inactive	COc1ccc(C2CC(=O)C3=C(C2)Nc2ccccc2NC3c2coc3ccccc3c2=O)cc1OC (configuration not stated)
inactive	Cn1c(=O)c(C(=O)COC(=O)c2cc(-c3ccco3)nc3ccccc23)c(N)n(CC2CC2)c1=O
inactive	Cc1cc(C)c(C)c(S(=O)(=O)N2CCN(CC(=O)NC(=O)NCc3ccccc3)CC2)c1C
inactive	Cc1cccn2c(=O)c3cc(C(N)=S)c(=N)n(CCCN4CCOCC4)c3nc12
inactive	COc1cccc(/C=C2/SC(=O)N(C)C2=O)c1OCc1ccc(C(=O)O)cc1
inactive	CCOc1ccc(CNc2ccc(N3CCCC3)cc2)cc1
inactive	CC1Cc2ccccc2N1C(=O)c1ccc(N2CCCC2)c([N+](=O)[O-])c1 (configuration not stated)
inactive	CCOC(=O)c1nc(Nc2ccc(C(=O)OC)cc2)c2ccccc2n1
